Measurements: ChEMBL document CHEMBL5214900, “Design, Synthesis, and Biological Evaluation of Membrane-Active Bakuchiol Derivatives as Effective Broad-Spectrum Antibacterial Agents” (J Med Chem, 2021)
Converted amounts (≈) assume the structure as drawn.

Key:
[1] = tested on: Staphylococcus aureus; experiment: Antibacterial activity against Staphylococcus aureus ATCC 29213 assessed as inhibition of bacterial growth incubated for 24 hrs by CLSI based broth dilution method; format: functional
[2] = tested on: Staphylococcus aureus; experiment: Antibacterial activity against methicillin-resistant Staphylococcus aureus N315 assessed as inhibition of bacterial growth incubated for 24 hrs by CLSI based broth dilution method; format: functional
[3] = tested on: Staphylococcus aureus; experiment: Antibacterial activity against methicillin-resistant Staphylococcus aureus NCTC10442 assessed as inhibition of bacterial growth incubated for 24 hrs by CLSI based broth dilution method; format: functional
[4] = tested on: Escherichia coli; experiment: Antibacterial activity against Escherichia coli ATCC 25922 assessed as inhibition of bacterial growth incubated for 24 hrs by CLSI based broth dilution method; format: functional
[5] = Hemolytic activity in rabbit RBC measured after 1 hrs by multimode reader assay; format: toxicity, cell-based, Oryctolagus cuniculus, Erythrocyte; settings: rabbit red blood cells (erythrocytes)
[6] = tested on: Acinetobacter baumannii; experiment: Antibacterial activity against Acinetobacter baumannii ATCC 17978 assessed as inhibition of bacterial growth incubated for 24 hrs by CLSI based broth dilution method; format: functional
[7] = tested on: Acinetobacter baumannii; experiment: Antibacterial activity against Acinetobacter baumannii R2889 assessed as inhibition of bacterial growth incubated for 24 hrs by CLSI based broth dilution method; format: functional
[8] = tested on: Klebsiella pneumoniae; experiment: Antibacterial activity against Klebsiella pneumoniae ATCC 10031 assessed as inhibition of bacterial growth incubated for 24 hrs by CLSI based broth dilution method; format: functional
[9] = tested on: Klebsiella pneumoniae; experiment: Antibacterial activity against Klebsiella pneumoniae ATCC 14581 assessed as inhibition of bacterial growth incubated for 24 hrs by CLSI based broth dilution method; format: functional
[10] = tested on: Pseudomonas aeruginosa; experiment: Antibacterial activity against Pseudomonas aeruginosa ATCC 9027 assessed as inhibition of bacterial growth incubated for 24 hrs by CLSI based broth dilution method; format: functional

## C=C[C@@](C)(/C=C/c1ccc(OCCCCN(CC)CC)cc1)CCC=C(C)C
[1]
  MIC: 3.12 µg/mL (≈ 8.15 µM)
[2]
  MIC: 3.12 µg/mL (≈ 8.15 µM)
[3]
  MIC: 3.12 µg/mL (≈ 8.15 µM)
[4]
  MIC: > 100 µg/mL
[5]
  HC50 at 1 h: 109 µg/mL

## CC[C@H](C)[C@H](NC(=O)CN)C(=O)NCC(=O)N[C@@H](C)C(=O)N[C@H](C(=O)N[C@@H](CC(C)C)C(=O)N[C@@H](CCCCN)C(=O)N[C@H](C(=O)N[C@@H](CC(C)C)C(=O)N[C@H](C(=O)N[C@H](C(=O)NCC(=O)N[C@@H](CC(C)C)C(=O)N1CCC[C@H]1C(=O)N[C@@H](C)C(=O)N[C@@H](CC(C)C)C(=O)N[C@H](C(=O)N[C@@H](CO)C(=O)N[C@@H](Cc1c[nH]c2ccccc12)C(=O)N[C@H](C(=O)N[C@@H](CCCCN)C(=O)N[C@@H](CCCNC(=N)N)C(=O)N[C@@H](CCCCN)C(=O)N[C@@H](CCCNC(=N)N)C(=O)N[C@@H](CCC(N)=O)C(=O)N[C@@H](CCC(N)=O)C(N)=O)[C@@H](C)CC)[C@@H](C)CC)[C@@H](C)O)[C@@H](C)O)C(C)C)C(C)C [MELITTIN]
[6]
  MIC: 3.12 µg/mL (≈ 1.1 µM)
[7]
  MIC: 3.12 µg/mL (≈ 1.1 µM)
[8]
  MIC: 6.25 µg/mL (≈ 2.2 µM)
[9]
  MIC: 6.25 µg/mL (≈ 2.2 µM)

## C=C[C@@](C)(/C=C/c1ccc(OCCCCNCCSC)cc1)CCC=C(C)C
[1]
  MIC: 0.78 µg/mL (≈ 1.94 µM)
[2]
  MIC: 0.78 µg/mL (≈ 1.94 µM)
[3]
  MIC: 1.56 µg/mL (≈ 3.88 µM)
[4]
  MIC: 50 µg/mL (≈ 124 µM)
[5]
  HC50 at 1 h: 32.5 µg/mL

## C=C[C@@](C)(/C=C/c1ccc(OCCCC[N+](C)(C)C)cc1)CCC=C(C)C.[I-]
[1]
  MIC: 0.78 µg/mL
[2]
  MIC: 0.78 µg/mL
[3]
  MIC: 0.78 µg/mL
[4]
  MIC: 6.25 µg/mL
[5]
  HC50 at 1 h: 34.2 µg/mL

## C=C[C@@](C)(/C=C/c1ccc(OCCCCCCCCCCBr)cc1)CCC=C(C)C
[1]
  MIC: > 50 µg/mL
[2]
  MIC: > 50 µg/mL
[3]
  MIC: > 50 µg/mL
[4]
  MIC: > 100 µg/mL
[5]
  HC50 at 1 h: > 200 µg/mL

## C=C[C@@](C)(/C=C/c1ccc(OCCCCNCCCC)cc1)CCC=C(C)C
[1]
  MIC: 1.56 µg/mL (≈ 4.07 µM)
[2]
  MIC: 1.56 µg/mL (≈ 4.07 µM)
[3]
  MIC: 1.56 µg/mL (≈ 4.07 µM)
[4]
  MIC: 12.5 µg/mL (≈ 32.6 µM)
[5]
  HC50 at 1 h: 32.4 µg/mL

## C=C[C@@](C)(/C=C/c1ccc(OCCCCN(CCCC)CCCC)cc1)CCC=C(C)C
[1]
  MIC: > 50 µg/mL
[2]
  MIC: > 50 µg/mL
[3]
  MIC: > 50 µg/mL
[4]
  MIC: > 100 µg/mL
[5]
  HC50 at 1 h: > 200 µg/mL

## C=C[C@@](C)(/C=C/c1ccc(OCCCBr)cc1)CCC=C(C)C
[1]
  MIC: > 50 µg/mL
[2]
  MIC: > 50 µg/mL
[3]
  MIC: > 50 µg/mL
[4]
  MIC: > 100 µg/mL
[5]
  HC50 at 1 h: > 200 µg/mL

## C=C[C@@](C)(/C=C/c1ccc(OCCCCN(C)CCCNC)cc1)CCC=C(C)C
[1]
  MIC: 1.56 µg/mL (≈ 3.78 µM)
[2]
  MIC: 0.78 µg/mL (≈ 1.89 µM)
[3]
  MIC: 1.56 µg/mL (≈ 3.78 µM)
[4]
  MIC: 1.56 µg/mL (≈ 3.78 µM)
[5]
  HC50 at 1 h: 37.4 µg/mL
[10]
  MIC: 6.25 µg/mL (≈ 15.1 µM)
[6]
  MIC: 1.56 µg/mL (≈ 3.78 µM)
[7]
  MIC: 6.25 µg/mL (≈ 15.1 µM)
[8]
  MIC: 3.12 µg/mL (≈ 7.57 µM)
[9]
  MIC: 3.12 µg/mL (≈ 7.57 µM)

## C=C[C@@](C)(/C=C/c1ccc(OCCCC[N+](C)(CCCC)CCCC)cc1)CCC=C(C)C.[I-]
[1]
  MIC: 1.56 µg/mL
[2]
  MIC: 0.78 µg/mL
[3]
  MIC: 0.39 µg/mL
[4]
  MIC: 12.5 µg/mL
[5]
  HC50 at 1 h: 40.6 µg/mL

## C=C[C@@](C)(/C=C/c1ccc(OCCCCBr)cc1)CCC=C(C)C
[1]
  MIC: > 50 µg/mL
[2]
  MIC: > 50 µg/mL
[3]
  MIC: > 50 µg/mL
[4]
  MIC: > 100 µg/mL
[5]
  HC50 at 1 h: > 200 µg/mL

## C=C[C@@](C)(/C=C/c1ccc(O)cc1)CCC=C(C)C [BAKUCHIOL]
[1]
  MIC: 6.25 µg/mL (≈ 24.4 µM)
[2]
  MIC: 3.12 µg/mL (≈ 12.2 µM)
[3]
  MIC: 3.12 µg/mL (≈ 12.2 µM)
[4]
  MIC: > 100 µg/mL
[5]
  HC50 at 1 h: 89.7 µg/mL
[10]
  MIC: > 50 µg/mL
[6]
  MIC: > 50 µg/mL
[7]
  MIC: > 50 µg/mL
[8]
  MIC: 12.5 µg/mL (≈ 48.8 µM)
[9]
  MIC: > 50 µg/mL

## C=C[C@@](C)(/C=C/c1ccc(OCCCCNCCCCCC)cc1)CCC=C(C)C
[1]
  MIC: 1.56 µg/mL (≈ 3.79 µM)
[2]
  MIC: 0.78 µg/mL (≈ 1.89 µM)
[3]
  MIC: 1.56 µg/mL (≈ 3.79 µM)
[4]
  MIC: 100 µg/mL (≈ 243 µM)
[5]
  HC50 at 1 h: 120 µg/mL

## C=C[C@@](C)(/C=C/c1ccc(OCCCCCCCCN(CC)CC)cc1)CCC=C(C)C
[1]
  MIC: 3.12 µg/mL (≈ 7.11 µM)
[2]
  MIC: 1.56 µg/mL (≈ 3.55 µM)
[3]
  MIC: 1.56 µg/mL (≈ 3.55 µM)
[4]
  MIC: > 100 µg/mL
[5]
  HC50 at 1 h: 83.5 µg/mL

## C=C[C@@](C)(/C=C/c1ccc(OCCCCCCCCBr)cc1)CCC=C(C)C
[1]
  MIC: > 50 µg/mL
[2]
  MIC: > 50 µg/mL
[3]
  MIC: > 50 µg/mL
[4]
  MIC: > 100 µg/mL
[5]
  HC50 at 1 h: > 200 µg/mL
